Test: Solubility of the carboxylic acid in pure water
Settings: maximum dissolution based on 100 g of pure water at 20° C.

| Solubility | Compound |
| --- | --- |
| 10 g/100 g | O=C(O)c1nc(C(=O)O)c(C(=O)O)c(C(=O)O)c1C(=O)O [Pyridine pentacarboxylic acid] |
| 7 g/100 g | Furan carboxylic acid |
